Reference: the NIST ThermoML archive (doi:10.1007/s10765-009-0581-7)
Numbers after ± are expanded uncertainties.

Assay: xn = mol fraction of the nth substance listed
Settings: for surface tension liquid-gas: Ring tensiometer; for mass density: 101 kPa, Liquid

CC#N [acetonitrile] + CCCO
Settings	mass density [kg/m3]	surface tension liquid-gas [mN/m]
278.15 K, x1 = 0.1255	813.41 ± 1.8	25.2 ± 0.4
278.15 K, x1 = 0.2452	810.66 ± 1.8	25.4 ± 0.4
278.15 K, x1 = 0.3466	808.33 ± 1.8	25.8 ± 0.4
278.15 K, x1 = 0.4995	804.81 ± 1.9	26.5 ± 0.4
278.15 K, x1 = 0.6449	801.47 ± 1.9	27.4 ± 0.4
278.15 K, x1 = 0.7492	799.07 ± 1.9	28.1 ± 0.4
278.15 K, x1 = 0.8645	796.42 ± 1.9	29.1 ± 0.5
278.15 K, x1 = 0.9101	795.37 ± 1.9	29.5 ± 0.5
278.15 K, x1 = 1	793.3 ± 1.9	30.5 ± 0.5
283.15 K, x1 = 0.1255	809.44 ± 1.8	24.8 ± 0.4
283.15 K, x1 = 0.2452	806.61 ± 1.8	25 ± 0.4
283.15 K, x1 = 0.3466	804.22 ± 1.9	25.4 ± 0.4
283.15 K, x1 = 0.4995	800.61 ± 1.9	26.1 ± 0.4
283.15 K, x1 = 0.6449	797.18 ± 1.9	27 ± 0.4
283.15 K, x1 = 0.7492	794.72 ± 1.9	27.7 ± 0.4
283.15 K, x1 = 0.8645	792 ± 1.9	28.7 ± 0.5
283.15 K, x1 = 0.9101	790.92 ± 1.9	29.1 ± 0.5
283.15 K, x1 = 1	788.8 ± 1.9	30.1 ± 0.5
288.15 K, x1 = 0.1255	805.55 ± 1.8	24.4 ± 0.4
288.15 K, x1 = 0.2452	802.64 ± 1.9	24.7 ± 0.4
288.15 K, x1 = 0.3466	800.18 ± 1.9	25 ± 0.4
288.15 K, x1 = 0.4995	796.46 ± 1.9	25.7 ± 0.4
288.15 K, x1 = 0.6449	792.93 ± 1.9	26.6 ± 0.4
288.15 K, x1 = 0.7492	790.39 ± 1.9	27.3 ± 0.4
288.15 K, x1 = 0.8645	787.59 ± 1.9	28.3 ± 0.4
288.15 K, x1 = 0.9101	786.48 ± 2	28.7 ± 0.5
288.15 K, x1 = 1	784.3 ± 2	29.7 ± 0.5
293.15 K, x1 = 0.1255	799.41 ± 1.9	24 ± 0.4
293.15 K, x1 = 0.2452	796.56 ± 1.9	24.3 ± 0.4
293.15 K, x1 = 0.3466	794.15 ± 1.9	24.6 ± 0.4
293.15 K, x1 = 0.4995	790.51 ± 1.9	25.3 ± 0.4
293.15 K, x1 = 0.6449	787.05 ± 1.9	26.2 ± 0.4
293.15 K, x1 = 0.7492	784.57 ± 2	26.9 ± 0.4
293.15 K, x1 = 0.8645	781.82 ± 2	27.9 ± 0.4
293.15 K, x1 = 0.9101	780.74 ± 2	28.3 ± 0.4
293.15 K, x1 = 1	778.3 ± 2	29.3 ± 0.5
298.15 K, x1 = 0.1255	796.74 ± 1.9	23.6 ± 0.4
298.15 K, x1 = 0.2452	794.01 ± 1.9	23.9 ± 0.4
298.15 K, x1 = 0.3466	791.7 ± 1.9	24.2 ± 0.4
298.15 K, x1 = 0.4995	788.21 ± 1.9	24.9 ± 0.4
298.15 K, x1 = 0.6449	784.9 ± 2	25.8 ± 0.4
298.15 K, x1 = 0.7492	782.52 ± 2	26.6 ± 0.4
298.15 K, x1 = 0.8645	779.89 ± 2	27.5 ± 0.4
298.15 K, x1 = 0.9101	778.85 ± 2	27.9 ± 0.4
298.15 K, x1 = 1	776.75 ± 2	28.9 ± 0.5
303.15 K, x1 = 0.1255	792.49 ± 1.9	23.2 ± 0.4
303.15 K, x1 = 0.2452	789.62 ± 1.9	23.5 ± 0.4
303.15 K, x1 = 0.3466	787.18 ± 1.9	23.8 ± 0.4
303.15 K, x1 = 0.4995	783.51 ± 2	24.5 ± 0.4
303.15 K, x1 = 0.6449	780.02 ± 2	25.4 ± 0.4
303.15 K, x1 = 0.7492	777.52 ± 2	26.2 ± 0.4
303.15 K, x1 = 0.8645	774.75 ± 2	27.1 ± 0.4
303.15 K, x1 = 0.9101	773.66 ± 2	27.5 ± 0.4
303.15 K, x1 = 1	771.5 ± 2	28.5 ± 0.4
308.15 K, x1 = 0.1255	789.47 ± 1.9	22.8 ± 0.4
308.15 K, x1 = 0.2452	786.3 ± 2	23.1 ± 0.4
308.15 K, x1 = 0.3466	783.62 ± 2	23.4 ± 0.4
308.15 K, x1 = 0.4995	779.56 ± 2	24.2 ± 0.4
308.15 K, x1 = 0.6449	775.71 ± 2	25 ± 0.4
308.15 K, x1 = 0.7492	772.95 ± 2	25.8 ± 0.4
308.15 K, x1 = 0.8645	769.89 ± 2	26.7 ± 0.4
308.15 K, x1 = 0.9101	768.68 ± 2.1	27.1 ± 0.4
308.15 K, x1 = 1	766.3 ± 2.1	28.1 ± 0.4
313.15 K, x1 = 0.1255	783.74 ± 2	22.4 ± 0.4
313.15 K, x1 = 0.2452	780.62 ± 2	22.7 ± 0.4
313.15 K, x1 = 0.3466	777.99 ± 2	23 ± 0.4
313.15 K, x1 = 0.4995	774.01 ± 2	23.8 ± 0.4
313.15 K, x1 = 0.6449	770.23 ± 2	24.6 ± 0.4
313.15 K, x1 = 0.7492	767.52 ± 2.1	25.4 ± 0.4
313.15 K, x1 = 0.8645	764.52 ± 2.1	26.3 ± 0.4
313.15 K, x1 = 0.9101	763.34 ± 2.1	26.8 ± 0.4
313.15 K, x1 = 1	761 ± 2.1	27.7 ± 0.4
